Like-named read-outs stand apart in the source and are kept apart here.
What was measured:
αβγ hENaC [1] = molecular target: T1, αβγ hENaC (Homo sapiens, UniProt P37088+P51168+P51170); design: method as in PMID 18326490; settings: read-out: EC50 of S3969 obtained by patch-clamp; cited from earlier work
T1 construct: GFP; host or cells: HEK293T
T1 sequence (P37088 1-669): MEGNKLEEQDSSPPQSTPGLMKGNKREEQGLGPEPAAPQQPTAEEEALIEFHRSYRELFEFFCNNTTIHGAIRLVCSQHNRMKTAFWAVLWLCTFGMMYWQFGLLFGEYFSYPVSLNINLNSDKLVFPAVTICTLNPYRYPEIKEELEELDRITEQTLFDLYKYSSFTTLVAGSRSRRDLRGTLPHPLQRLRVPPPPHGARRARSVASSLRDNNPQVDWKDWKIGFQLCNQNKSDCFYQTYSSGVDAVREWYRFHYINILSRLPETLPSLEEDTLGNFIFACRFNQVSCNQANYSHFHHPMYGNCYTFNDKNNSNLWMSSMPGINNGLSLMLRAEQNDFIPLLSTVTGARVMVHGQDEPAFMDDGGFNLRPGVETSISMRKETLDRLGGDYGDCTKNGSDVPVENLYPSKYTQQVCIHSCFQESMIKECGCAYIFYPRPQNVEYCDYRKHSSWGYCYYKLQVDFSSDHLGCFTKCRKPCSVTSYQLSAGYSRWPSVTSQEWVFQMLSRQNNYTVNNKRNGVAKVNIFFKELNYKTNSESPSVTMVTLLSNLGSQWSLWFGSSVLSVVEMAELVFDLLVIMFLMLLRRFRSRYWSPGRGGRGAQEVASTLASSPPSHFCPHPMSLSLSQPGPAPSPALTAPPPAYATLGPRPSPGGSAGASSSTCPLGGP
T1 sequence (P51168 1-640): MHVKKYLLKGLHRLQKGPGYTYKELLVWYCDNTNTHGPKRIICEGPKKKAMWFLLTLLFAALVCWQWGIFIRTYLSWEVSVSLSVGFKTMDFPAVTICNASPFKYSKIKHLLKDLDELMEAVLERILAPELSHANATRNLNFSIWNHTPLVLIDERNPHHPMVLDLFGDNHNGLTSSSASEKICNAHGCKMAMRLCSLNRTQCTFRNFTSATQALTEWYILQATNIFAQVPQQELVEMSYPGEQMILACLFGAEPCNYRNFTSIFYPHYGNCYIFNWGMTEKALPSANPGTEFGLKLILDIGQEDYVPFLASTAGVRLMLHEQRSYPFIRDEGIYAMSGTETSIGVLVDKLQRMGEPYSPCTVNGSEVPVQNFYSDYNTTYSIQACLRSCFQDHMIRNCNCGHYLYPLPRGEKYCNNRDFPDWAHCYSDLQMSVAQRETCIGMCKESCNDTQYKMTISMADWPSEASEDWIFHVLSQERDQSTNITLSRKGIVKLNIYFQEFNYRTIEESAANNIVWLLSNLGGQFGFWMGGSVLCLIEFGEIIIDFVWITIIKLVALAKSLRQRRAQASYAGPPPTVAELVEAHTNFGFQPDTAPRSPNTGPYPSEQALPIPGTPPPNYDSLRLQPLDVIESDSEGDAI
T1 sequence (P51170 1-649): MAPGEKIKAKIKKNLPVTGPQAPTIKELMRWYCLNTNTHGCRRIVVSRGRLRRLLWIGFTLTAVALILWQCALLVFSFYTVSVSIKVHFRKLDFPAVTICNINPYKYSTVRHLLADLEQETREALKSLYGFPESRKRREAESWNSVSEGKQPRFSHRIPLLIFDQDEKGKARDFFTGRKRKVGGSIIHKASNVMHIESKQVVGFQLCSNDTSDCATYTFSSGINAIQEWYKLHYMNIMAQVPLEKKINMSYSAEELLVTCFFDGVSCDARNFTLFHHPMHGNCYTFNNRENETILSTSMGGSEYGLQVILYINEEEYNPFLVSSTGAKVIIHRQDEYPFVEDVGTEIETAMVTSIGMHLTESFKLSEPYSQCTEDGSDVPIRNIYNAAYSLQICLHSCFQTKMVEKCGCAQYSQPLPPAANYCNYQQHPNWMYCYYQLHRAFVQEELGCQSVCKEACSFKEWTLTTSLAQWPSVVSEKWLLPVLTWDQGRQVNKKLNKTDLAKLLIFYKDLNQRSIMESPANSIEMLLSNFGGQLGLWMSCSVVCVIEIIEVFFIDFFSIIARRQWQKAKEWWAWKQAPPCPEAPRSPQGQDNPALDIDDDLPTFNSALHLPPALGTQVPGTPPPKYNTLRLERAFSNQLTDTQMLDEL

αβγ hENaC [2] = molecular target: T1, αβγ hENaC; test: Membrane potential assay (FMP dye) on αβγ hENaC-expressing cells; assay type: cell-based; settings: 0.03-10 µM; read-out: EC50, depolarization of membrane potential in hENaC expressing cells
Procedure: The α, β, and γ hENaC subunits were cloned from OriGene (Rockville, MD; GenBank accession number […] for SCNN1A, NM_000336 for SCNN1B and NM_001039 for SCNN1G). α, GFP-tagged β, and γ hENaC were cloned into a CMV promoter-based vector and expressed constitutively. The HEK293T cells were seeded onto a 35 mm dish and transfected with α, β, and γ hENaC expression plasmid using Lipofectamine 2000 (Invitrogen). Then, transfected cells were seeded onto 96-well black-wall plate for 18–26 h prior to their use in an experiment.
hENaC-expressing cells were characterized using FLIPER Membrane Potential (FMP) Assay Kit (Molecular Devices Corporation, Sunnyvale, CA, USA). In this assay, changes in the membrane potential were quantified via fluorescence change caused by FMP dye. The hENaC-expressing cells were washed with assay buffer (containing: 130 mM NaCl, 10 mM glucose, 5 mM KCl, 2 mM CaCl2, 1.2 mM MgCl2, and 10 mM HEPES, pH adjusted to 7.4 with NaOH) and subsequently, FMP blue-dye in assay buffer was loaded into the cells at room temperature for 30 min. After dye treatment, S3969 (0.03−10 µM), an ENaC agonist, S3969+Bz (ENaC antagonist, 0.01 µM), or NGCC (0.01−10 µM) was treated to hENaC-expressing cells. The plate was assayed in a FlexStation III plate reader (Molecular devices Corporation) by excitation at 530 nm and measuring the emission at 560 nm.

[3] = test system: lingual surface potential to salt stimuli; design: method as in PMID 12736236, PMID 16809639; settings: amiloride 100 µM, humans, gustometer; cited from earlier work
human αβγ ENaC = test system: human αβγ ENaC; design: method as in PMID 18326490; settings: cited from earlier work
[4] = test system: chorda tympani (CT) taste nerve response to NaCl; design: method as in PMID 12736236, PMID 16809639; settings: cited from earlier work
human δβγ ENaC = test system: human δβγ ENaC; design: method as in PMID 18326490; settings: cited from earlier work

Structure (SMILES)	EC50 (αβγ hENaC [1]) [µM]	EC50 (αβγ hENaC [2]) [µM]	reduction of lingual surface potential to salt stimuli [3]	IC50 (human αβγ ENaC) [µM]	inhibition of chorda tympani (CT) taste nerve response to NaCl [4]	IC50 (human δβγ ENaC) [µM]
Cc1cccc2[nH]cc(SC(CC(C)C)C(=O)NCCO)c12 (stereo not drawn) [S3969]	1.2 ± 0.1	1.26 ± 0.29				
N=C(N)NC(=O)c1nc(Cl)c(N)nc1N [amiloride]			5–40%	~0.11	about 70%	~2.7

From article PMC3930709, “Selective Activation of hTRPV1 by N-Geranyl Cyclopropylcarboxamide, an Amiloride-Insensitive Salt Taste Enhancer” (PLoS ONE, 2014)
